From US9169246B2, “Pyrazoloquinolinone derivatives, preparation thereof and therapeutic use thereof” (SANOFI, priority 2011, dated 2015)

Test system: HUVEC cells
Test: Test of in vitro proliferation of HUVEC cells induced with FGF-2
Format: cell-based
Details: Homo sapiens, FGF-2 1 ng/ml induced proliferation, ATP luminescence, head says M, cells print nM
Experimental: The compounds according to the invention underwent biochemical studies in order to determine their capacity to inhibit the enzyme methionine-aminopeptidase2 (enzymatic test on isolated enzyme). […] Consequently, the compounds of the invention that show good activity in the MetAP2 enzymatic test were evaluated in a test of in vitro proliferation of HUVEC cells induced with FGF-2. […] After incubation for 48 hours, the medium is aspirated and replaced with the deprivation medium RPMI1640 mentioned previously. A second stimulation is then performed. The cells are again incubated at 37° C. in the presence of CO2. After incubation for 72 hours, the medium is again aspirated and 100 μl of Cell Titer-GLOTM Luminescent Cell Viability Assay (Promega, G7571) are added over 10 minutes. The amount of ATP present in the cells, measured using a luminometer, is proportional to the number cells per well corresponding to the cell proliferation.

Question: `O=c1c2cn[nH]c2c2ccc(-c3ccccc3F)cc2n1CC(F)(F)F` [Compound 3, 7-(2-fluorophenyl)-5-(2,2,2-trifluoroethyl)-1,5-dihydro-4H-pyrazolo[4,3-c]quinolin-4-one] was tested. Which IC50 did it give?
Answer: The IC50 was 660 nM.

Question: With `Cc1cc(-c2ccc3c4[nH]ncc4c(=O)n(CC(F)(F)F)c3c2)ccn1` [Compound 186, 7-(2-methylpyrid-4-yl)-5-(2,2,2-trifluoroethyl)-1,5-dihydro-4H-pyrazolo[4,3-c]quinolin-4-one] as the compound, how does the IC50 read?
Answer: Its IC50 is 360 nM.
